Experimental data reported in the NIST ThermoML archive (doi:10.1021/je800242n).
Values joined by “and” are separate entries in the source; they are usually repeats but may differ in a detail not shown here. Equal values may be shown once.

Details: Crystal

[F][Zn][F] [zinc fluoride]
Details | vapor or sublimation pressure
846 K | 1.2e-05 kPa
852 K | 1.2e-05 kPa
853 K | 1.23e-05 kPa
854 K | 1.78e-05 kPa
859 K | 1.23e-05 kPa
865 K | 2.4e-05 kPa
867 K | 1.82e-05 kPa and 2.4e-05 kPa
871 K | 2.45e-05 kPa
875 K | 2.45e-05 kPa
876 K | 3.55e-05 kPa and 4.79e-05 kPa
880 K | 3.63e-05 kPa and 3.55e-05 kPa
883 K | 4.57e-05 kPa and 3.63e-05 kPa
885 K | 4.57e-05 kPa
886 K | 3.63e-05 kPa
887 K | 4.57e-05 kPa and 6.03e-05 kPa and 4.9e-05 kPa
888 K | 4.57e-05 kPa
889 K | 7.24e-05 kPa
891 K | 6.03e-05 kPa
893 K | 6.17e-05 kPa
895 K | 6.76e-05 kPa and 4.9e-05 kPa
896 K | 6.76e-05 kPa and 6.17e-05 kPa
898 K | 6.76e-05 kPa and 8.32e-05 kPa and 7.41e-05 kPa
900 K | 6.76e-05 kPa
902 K | 8.51e-05 kPa and 8.32e-05 kPa
903 K | 9.12e-05 kPa and 0.000107 kPa
904 K | 7.41e-05 kPa
905 K | 7.41e-05 kPa
906 K | 9.12e-05 kPa and 0.000107 kPa
909 K | 0.000102 kPa and 9.77e-05 kPa
910 K | 0.00012 kPa
911 K | 0.000115 kPa
912 K | 9.77e-05 kPa
913 K | 0.000138 kPa and 0.000123 kPa
914 K | 0.000155 kPa and 0.00011 kPa
916 K | 0.000158 kPa and 0.000166 kPa
919 K | 0.000158 kPa and 0.000135 kPa
920 K | 0.000166 kPa
921 K | 0.000182 kPa
922 K | 0.000135 kPa
923 K | 0.000204 kPa and 0.000148 kPa
924 K | 0.000204 kPa
925 K | 0.000182 kPa
926 K | 0.000229 kPa
928 K | 0.000204 kPa and 0.000251 kPa
930 K | 0.000251 kPa and 0.000195 kPa
932 K | 0.000263 kPa
933 K | 0.000195 kPa and 0.000275 kPa
934 K | 0.000295 kPa and 0.000257 kPa and 0.000209 kPa
937 K | 0.000316 kPa
938 K | 0.000372 kPa
939 K | 0.000316 kPa
940 K | 0.000339 kPa
941 K | 0.000372 kPa and 0.000282 kPa
942 K | 0.000282 kPa and 0.000355 kPa
943 K | 0.000282 kPa
945 K | 0.000407 kPa
946 K | 0.00038 kPa
948 K | 0.000437 kPa
950 K | 0.000479 kPa and 0.000513 kPa
951 K | 0.000479 kPa and 0.000389 kPa
952 K | 0.000363 kPa and 0.000501 kPa
955 K | 0.000575 kPa
956 K | 0.000513 kPa and 0.000417 kPa
958 K | 0.000575 kPa
959 K | 0.000589 kPa
960 K | 0.000661 kPa
961 K | 0.000661 kPa and 0.000525 kPa
962 K | 0.000692 kPa
963 K | 0.000525 kPa and 0.000692 kPa
965 K | 0.000589 kPa
966 K | 0.000794 kPa and 0.000692 kPa
968 K | 0.000759 kPa
969 K | 0.000851 kPa and 0.000912 kPa
970 K | 0.000871 kPa and 0.000708 kPa
972 K | 0.000912 kPa
973 K | 0.000955 kPa
974 K | 0.000741 kPa
975 K | 0.000912 kPa and 0.000813 kPa
976 K | 0.00107 kPa
978 K | 0.00105 kPa and 0.00123 kPa
979 K | 0.00115 kPa and 0.000933 kPa
980 K | 0.00115 kPa
982 K | 0.0012 kPa
983 K | 0.000977 kPa and 0.00132 kPa
984 K | 0.00105 kPa
986 K | 0.00145 kPa and 0.00126 kPa
988 K | 0.00148 kPa and 0.00158 kPa
989 K | 0.00148 kPa and 0.00138 kPa and 0.00126 kPa
991 K | 0.00158 kPa
993 K | 0.00132 kPa and 0.00135 kPa
994 K | 0.00178 kPa
996 K | 0.00191 kPa and 0.00195 kPa
997 K | 0.00166 kPa
998 K | 0.00182 kPa and 0.00214 kPa
999 K | 0.00195 kPa and 0.00166 kPa
1001 K | 0.00209 kPa
1003 K | 0.00178 kPa
1004 K | 0.00174 kPa and 0.00245 kPa
1005 K | 0.00251 kPa
1006 K | 0.00245 kPa
1007 K | 0.00234 kPa
1008 K | 0.00219 kPa
1009 K | 0.00219 kPa and 0.00295 kPa
1010 K | 0.00257 kPa
1011 K | 0.00269 kPa
1013 K | 0.00229 kPa and 0.00316 kPa and 0.00234 kPa
1016 K | 0.00347 kPa
1017 K | 0.00324 kPa and 0.00295 kPa
1019 K | 0.00295 kPa
1020 K | 0.00295 kPa
1021 K | 0.00347 kPa and 0.00339 kPa
1022 K | 0.00398 kPa and 0.00302 kPa
1023 K | 0.00309 kPa
1027 K | 0.00407 kPa and 0.0038 kPa
1031 K | 0.00447 kPa and 0.00457 kPa and 0.00537 kPa
1035 K | 0.00427 kPa
1036 K | 0.00525 kPa
1037 K | 0.0049 kPa
1039 K | 0.00562 kPa
1040 K | 0.00692 kPa
1041 K | 0.00562 kPa
1046 K | 0.00676 kPa and 0.00575 kPa
1047 K | 0.00631 kPa
